# Laboratory results reported in publication PMC8748767 (Nature Communications, 2022).
# Several values for one entry are separate records, joined by “and”; a condition that tells them apart may be missing. Identical values can stand only once. Like-named read-outs stand apart in the source and are kept apart here.
# What was measured:
# THNΔ70 = target: T1, THNΔ70 (Homo sapiens, UniProt P07101); test: Differential scanning calorimetry (DSC), thermal stability with DA, THNΔ70; assay type: binding
# T1 construct: His-MBP (TEV site) (N, cleaved yes); made in house
# T1 sequence (P07101 102-528 limits assumed, stated change not applied): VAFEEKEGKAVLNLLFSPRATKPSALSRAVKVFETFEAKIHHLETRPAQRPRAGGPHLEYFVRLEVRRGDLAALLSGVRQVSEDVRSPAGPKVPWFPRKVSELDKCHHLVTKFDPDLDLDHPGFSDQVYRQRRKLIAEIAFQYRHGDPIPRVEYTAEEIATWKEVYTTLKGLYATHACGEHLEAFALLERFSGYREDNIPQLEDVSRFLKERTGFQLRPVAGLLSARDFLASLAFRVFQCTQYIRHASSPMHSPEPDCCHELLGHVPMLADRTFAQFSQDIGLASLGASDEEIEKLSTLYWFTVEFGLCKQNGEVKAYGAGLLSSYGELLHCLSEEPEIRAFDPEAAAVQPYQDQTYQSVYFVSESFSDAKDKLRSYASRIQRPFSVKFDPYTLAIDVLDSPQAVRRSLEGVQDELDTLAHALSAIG
# Procedure: (§1) In all experiments, 9 μM TH in 20 mM Na-Hepes pH 7, 200 mM NaCl was used, with the same buffer as reference, heating from 25 to 75 °C at a scan rate of 200 °C/h.
# [1] = target: THNΔ35 (human TH with the first 35 residues deleted) (Homo sapiens, UniProt P07101); test: Assay of TH activity and inhibition by DA, deletion mutant THNΔ35; assay type: biochemical
# THNΔ35 (human TH with the first 35 residues deleted), sequence (P07101 67-528 limits assumed, stated change not applied): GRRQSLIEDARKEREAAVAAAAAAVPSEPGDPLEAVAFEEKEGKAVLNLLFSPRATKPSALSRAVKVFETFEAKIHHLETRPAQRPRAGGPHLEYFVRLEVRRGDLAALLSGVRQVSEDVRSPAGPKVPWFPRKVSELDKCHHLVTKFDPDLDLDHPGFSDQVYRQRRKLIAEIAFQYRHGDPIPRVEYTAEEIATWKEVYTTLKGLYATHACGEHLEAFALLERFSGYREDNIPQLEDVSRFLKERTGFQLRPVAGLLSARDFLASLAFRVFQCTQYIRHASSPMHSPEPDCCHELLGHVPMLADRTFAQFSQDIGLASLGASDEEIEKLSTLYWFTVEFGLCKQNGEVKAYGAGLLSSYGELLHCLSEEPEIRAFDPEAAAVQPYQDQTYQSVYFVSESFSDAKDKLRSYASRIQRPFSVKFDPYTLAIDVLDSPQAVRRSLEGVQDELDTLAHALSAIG
# Procedure: (§2) The activity of purified TH and truncated forms was assayed at 37 °C[7]. The purified enzymes were kept on ice and diluted with 0.5% (w/v) bovine serum albumin in 20 mM Na-Hepes pH 7, 200 mM NaCl and centrifuged at 10,000 × g for 5 min at 4 °C. […] TH was added to a final concentration of 1 µg/ml (17 nM subunit) and preincubated at 37 °C for 1 min. […] Protein was removed by precipitation at −20 °C for 90 min followed by centrifugation at 20,000 × g for 14 min at 4 °C. The amount of L-Dopa in the supernatant was determined using a 1200 series high performance liquid chromatography (HPLC) system (Agilent technologies). The chromatographic separation was obtained using an Agilent Zorbax 300-SCX column with 20 mM HAc pH 3.5, 2% (v/v) propanol as mobile phase at a flow rate of 3 ml/min. The fluorescence detector was set to λex = 280 nm and λem = 314 nm.
# (§3) Statistical analyses were performed with Graphpad Prism software version 8.3.0. For SRCD, DSC and TH activity measurements, three enzyme samples from independent protein purifications were measured and the mean ± SD (standard deviation) was calculated. The homogeneity of variances was confirmed by Brown-Forsythe tests and multiple comparisons were made using one-way analysis of variance (ANOVA) followed by a post hoc HSD Tukey test. […] The individual curves were fitted to a four-parameter logistic curve by the [Inhibitor] vs. response—Variable slope equation (y = min + ((max − min)/(1 + IC50/X)^Hill Slope) in Graphpad and the mean IC50 ± SD reported.
# THNΔ35 = target: T2, THNΔ35 (Homo sapiens, UniProt P07101); test: Differential scanning calorimetry (DSC), thermal stability with DA, THNΔ35; assay type: binding
# T2 construct: His-MBP (TEV site) (N, cleaved yes); made in house
# T2 sequence (P07101 67-528 limits assumed, stated change not applied): as above
# Procedure: as §1
# [2] = target: T3, full-length human TH (TH1) (Homo sapiens, UniProt P07101); test: Differential scanning calorimetry (DSC), thermal stability with DA, TH; assay type: binding
# T3 sequence (P07101 1-497 isoform P07101-3): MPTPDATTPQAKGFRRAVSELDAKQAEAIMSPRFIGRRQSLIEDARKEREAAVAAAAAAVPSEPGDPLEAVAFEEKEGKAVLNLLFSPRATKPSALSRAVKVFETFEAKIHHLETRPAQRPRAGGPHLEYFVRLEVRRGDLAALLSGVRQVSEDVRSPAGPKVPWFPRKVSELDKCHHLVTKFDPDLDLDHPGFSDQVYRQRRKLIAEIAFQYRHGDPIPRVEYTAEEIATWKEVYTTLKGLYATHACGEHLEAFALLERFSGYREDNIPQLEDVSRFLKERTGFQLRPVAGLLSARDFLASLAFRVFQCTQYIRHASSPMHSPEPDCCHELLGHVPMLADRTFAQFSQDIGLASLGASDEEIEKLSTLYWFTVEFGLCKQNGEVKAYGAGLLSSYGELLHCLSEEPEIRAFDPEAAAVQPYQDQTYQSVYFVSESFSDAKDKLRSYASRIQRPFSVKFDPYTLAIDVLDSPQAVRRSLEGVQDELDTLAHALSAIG
# Procedure: as §1
# [3] = target: THS40p (S40 phosphorylated human TH) (Homo sapiens, UniProt P07101); test: biochemical
# THS40p (S40 phosphorylated human TH), sequence (P07101 1-497 isoform P07101-3): as above
# Procedure: TH was phosphorylated on S40 (control without kinase)[3], using the catalytic subunit of cAMP-dependent protein kinase (CatPKA, kind gift from S.O. Døskeland[64]). TH (4 mg/ml) was assayed in 50 mM Na-β-glycerophosphate pH 7.5, 1 mM DTT, 0.1 mM EGTA, 1x protease inhibitor cocktail (without EDTA, Pierce), 0.5 mM ATP, 5 mM MgCl2 and incubated with the catalytic subunit of CatPKA (200 nM, diluted from 20 µM in 60% glycerol, 0.5 mg/ml soya bean trypsin inhibitor) for 30 min at 25 °C. […] After phosphorylation, H89 (Sigma) (5 µM) was added and the samples were exchanged into 20 mM Hepes pH 7.0, 200 mM NaCl.
# as §2
# Statistical analyses were performed with Graphpad Prism software version 8.3.0. For SRCD, DSC and TH activity measurements, three enzyme samples from independent protein purifications were measured and the mean ± SD (standard deviation) was calculated. The homogeneity of variances was confirmed by Brown-Forsythe tests and multiple comparisons were made using one-way analysis of variance (ANOVA) followed by a post hoc HSD Tukey test. […]
# [4] = target: THNΔ70 (human TH with the entire N-terminal removed) (Homo sapiens, UniProt P07101); test: Assay of TH activity and inhibition by DA, deletion mutant THNΔ70; assay type: biochemical
# THNΔ70 (human TH with the entire N-terminal removed), sequence (P07101 102-528 limits assumed, stated change not applied): as the sequence (P07101 102-528 limits assumed, stated change not applied) above
# Procedure: as §2, §3
# [5] = target: T3, full-length human TH (TH1); test: biochemical; details: for IC50: mean ± SD, n = 3, 37 °C, 50 µM L-Tyr, 200 µM BH4
# Procedure: as §2, §3
# [6] = target: THNΔ43 (human TH lacking the N-terminal 43 residues) (Homo sapiens, UniProt P07101); test: Assay of TH activity and inhibition by DA, deletion mutant THNΔ43; assay type: biochemical
# THNΔ43 (human TH lacking the N-terminal 43 residues), sequence (P07101 75-528 limits assumed, stated change not applied): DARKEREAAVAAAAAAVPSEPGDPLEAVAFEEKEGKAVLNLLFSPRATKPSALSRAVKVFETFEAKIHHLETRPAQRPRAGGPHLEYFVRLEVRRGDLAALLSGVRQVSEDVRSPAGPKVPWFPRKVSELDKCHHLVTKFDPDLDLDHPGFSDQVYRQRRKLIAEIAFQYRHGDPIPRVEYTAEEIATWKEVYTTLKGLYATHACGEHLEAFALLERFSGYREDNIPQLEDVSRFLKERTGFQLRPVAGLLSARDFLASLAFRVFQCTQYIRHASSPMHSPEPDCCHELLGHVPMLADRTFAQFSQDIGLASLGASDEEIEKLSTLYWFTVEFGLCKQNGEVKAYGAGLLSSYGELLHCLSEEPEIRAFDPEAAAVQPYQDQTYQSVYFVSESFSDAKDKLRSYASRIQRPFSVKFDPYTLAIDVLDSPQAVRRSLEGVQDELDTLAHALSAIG
# Procedure: as §2, §3
# THNΔ43 = target: T4, THNΔ43 (Homo sapiens, UniProt P07101); test: Differential scanning calorimetry (DSC), thermal stability with DA, THNΔ43; assay type: binding
# T4 construct: His-MBP (TEV site) (N, cleaved yes); made in house
# T4 sequence (P07101 75-528 limits assumed, stated change not applied): as above
# Procedure: as §1
# [7] = target: TH, THNΔ35, THNΔ43, THNΔ70, THS40p (Homo sapiens, UniProt P07101); details: far-UV SRCD, two-fold molar ratio of DA
# TH, THNΔ35, THNΔ43, THNΔ70, THS40p, sequence (P07101 1-497 isoform P07101-3): as the sequence (P07101 1-497 isoform P07101-3) above
# Procedure: SRCD spectra were collected as from 280 to 170 nm (3 scans averaged) at 25 °C on the AU-UV beamline at ASTRID2, part of the Institute for Storage Rings (ISA) facility at the University of Aarhus, Denmark. […] The path length of the cell was confirmed using an interferometry method and found to be 100.1 µm. The protein concentration was measured using Abs280nm prior to the measurements and more accurately by A205nm from the absorption spectra measured simultaneously with the CD spectra, using the respective theoretical extinction coefficients[65]. The A205nm measurements were used in the conversion of raw CD units to ∆ε(M^−1cm^−1) values. Secondary structure content was determined in the 250–180 nm range using the BeStSel algorithm[66].
# [8] = individual samples (source data Sup Table 9)
smiles,measurement,setting,value
"NCCc1ccc(O)c(O)c1 [DA, dopamine]",Tonset with DA,"THNΔ70; THNΔ70 + two-fold molar ratio of DA, mean ± SD, without DA 45.0 ± 0.5",45.6 ± 0.6 °C
same,Tmax with DA,"THNΔ70; THNΔ70 + two-fold molar ratio of DA, mean ± SD, without DA 56.0 ± 0.1",56.4 ± 0.2 °C
same,"T max, THNΔ70+DA",THNΔ70; [8],56.38 °C and 56.21 °C and 56.6 °C
same,"T onset, THNΔ70+DA",THNΔ70; [8],45.36 °C and 45.19 °C and 46.36 °C
same,IC50,"[1]; THNΔ35, mean ± SD, n = 3, 37 °C, 50 µM L-Tyr, 200 µM BH4",0.22 ± 0.02 µM
same,remaining activity at 0.05 µM,"[1]; read-out: Relative TH activity, THNΔ35, 0.05 µM dopamine, relative to mean activity with 0 µM DA, replicates",89.3%
same,remaining activity at 0.1 µM,"[1]; read-out: Relative TH activity, THNΔ35, 0.10 µM dopamine, relative to mean activity with 0 µM DA, replicates",73.8%
same,remaining activity at 0.2 µM,"[1]; read-out: Relative TH activity, THNΔ35, 0.20 µM dopamine, relative to mean activity with 0 µM DA, replicates",56.1%
same,remaining activity at 0.78 µM,"[1]; read-out: Relative TH activity, THNΔ35, […] µM dopamine, relative to mean activity with 0 µM DA, replicates",29.7%
same,remaining activity at 6.25 µM,"[1]; read-out: Relative TH activity, THNΔ35, 6.25 µM dopamine, relative to mean activity with 0 µM DA, replicates",8.14%
same,remaining activity at 25 µM,"[1]; read-out: Relative TH activity, THNΔ35, […] dopamine, relative to mean activity with 0 µM DA, replicates",3.12%
same,Tonset with DA,"THNΔ35; THNΔ35 + two-fold molar ratio of DA, mean ± SD, without DA 37.5 ± 1.2",39.6 ± 0.3 °C
same,Tmax with DA,"THNΔ35; THNΔ35 + two-fold molar ratio of DA, mean ± SD, without DA 51.7 ± 0.7",54.9 ± 1.0 °C
same,"T max, THNΔ35+DA",THNΔ35; [8],56.43 °C and 54.75 °C and 54.43 °C and 54.1 °C
same,"T onset, THNΔ35+DA",THNΔ35; [8],39.27 °C and 39.93 °C and 39.71 °C and 39.61 °C
same,Tonset with DA,"[2]; TH + two-fold molar ratio of DA, mean ± SD, without DA 43.3 ± 0.2",45.2 ± 0.6 °C
same,Tmax with DA,"[2]; TH + two-fold molar ratio of DA, mean ± SD, without DA 54.9 ± 0.4",58.6 ± 0.6 °C
same,"T max, TH+DA",[2]; [8],59.32 °C and 58.94 °C and 58.11 °C and 58.01 °C
same,"T onset, TH+DA",[2]; [8],45.07 °C and 45.48 °C and 44.42 °C and 45.76 °C
same,remaining activity at 1000 µM,"[3]; 5 min, read-out: Relative TH activity, THS40p, 1000.00 µM dopamine, relative to mean activity with 0 µM DA, replicates",0%
same,IC50,"[3]; Dopamine IC50, THS40p, source data Fig 5f, SEM in a column of its own",12.4 µM
same,IC50,"[3]; THS40p, mean ± SD, n = 3, 37 °C, 50 µM L-Tyr, 200 µM BH4, read-out: IC50 for DA inhibition of TH activity",12.4 ± 2.3 µM
same,IC50,"[4]; THNΔ70, mean ± SD, n = 3, 37 °C, 50 µM L-Tyr, 200 µM BH4",19.4 ± 5.6 µM
same,remaining activity at 0.2 µM,"[4]; read-out: Relative TH activity, THNΔ70, 0.20 µM dopamine, relative to mean activity with 0 µM DA, replicates",113%
same,remaining activity at 12.58 µM,"[4]; read-out: Relative TH activity, THNΔ70, […] µM dopamine, relative to mean activity with 0 µM DA, replicates",74.6%
same,remaining activity at 50.31 µM,"[4]; read-out: Relative TH activity, THNΔ70, 50.31 µM dopamine, relative to mean activity with 0 µM DA, replicates",35.7%
same,remaining activity at 201.25 µM,"[4]; read-out: Relative TH activity, THNΔ70, 201.25 µM dopamine, relative to mean activity with 0 µM DA, replicates",13.3%
same,IC50,[5]; IC50 for DA inhibition of TH activity,0.49 ± 0.04 µM
same,IC50,[5]; read-out: IC50 for DA inhibition of TH activity,~0.5 µM
same,remaining activity at 0.08 µM,"[5]; read-out: Relative TH activity, TH, 0.08 µM dopamine, relative to mean activity with 0 µM DA, replicates",102%
same,remaining activity at 0.63 µM,"[5]; read-out: Relative TH activity, TH, 0.63 µM dopamine, relative to mean activity with 0 µM DA, replicates",48.2%
same,remaining activity at 5 µM,"[5]; read-out: Relative TH activity, TH, 5.00 µM dopamine, relative to mean activity with 0 µM DA, replicates",10%
same,remaining activity at 10 µM,"[5]; read-out: Relative TH activity, TH, 10.00 µM dopamine, relative to mean activity with 0 µM DA, replicates",6.24%
same,IC50,"[6]; THNΔ43, mean ± SD, n = 3, 37 °C, 50 µM L-Tyr, 200 µM BH4",18.1 ± 1 µM
same,remaining activity at 0.2 µM,"[6]; read-out: Relative TH activity, THNΔ43, 0.20 µM dopamine, relative to mean activity with 0 µM DA, replicates",105%
same,remaining activity at 6.25 µM,"[6]; read-out: Relative TH activity, THNΔ43, 6.25 µM dopamine, relative to mean activity with 0 µM DA, replicates",73.9%
same,remaining activity at 12.49 µM,"[6]; read-out: Relative TH activity, THNΔ43, […] µM dopamine, relative to mean activity with 0 µM DA, replicates",59.8%
same,remaining activity at 24.98 µM,"[6]; read-out: Relative TH activity, THNΔ43, 24.98 µM dopamine, relative to mean activity with 0 µM DA, replicates",43.9%
same,remaining activity at 49.97 µM,"[6]; read-out: Relative TH activity, THNΔ43, 49.97 µM dopamine, relative to mean activity with 0 µM DA, replicates",28.7%
same,remaining activity at 199.88 µM,"[6]; read-out: Relative TH activity, THNΔ43, 199.88 µM dopamine, relative to mean activity with 0 µM DA, replicates",11.8%
same,Tonset with DA,"THNΔ43; THNΔ43 + two-fold molar ratio of DA, mean ± SD, without DA 43.3 ± 0.9",43.5 ± 0.5 °C
same,Tmax with DA,"THNΔ43; THNΔ43 + two-fold molar ratio of DA, mean ± SD, without DA 54.3 ± 1.7",56.5 ± 0.4 °C
same,"T max, THNΔ43+DA",THNΔ43; [8],56.94 °C and 56.71 °C and 56.44 °C and 56.11 °C
same,"T onset, THNΔ43+DA",THNΔ43; [8],43.98 °C and 42.91 °C and 43.13 °C and 43.87 °C and 43.53 °C
same,Effect of incubation with DA on secondary structure (helix content) of TH,[7],no increase in helix content
